Patent publication US4755529A, “Guaiazulene derivatives and their methods of use” (Harbor Branch Oceanographic Institution Inc., priority 1986, dated 1988)
≈ marks a conversion by molar mass, not a printed value.

Columns and labels:
[1] = test system: P388 mouse leukemia cells; experiment: P388 mouse leukemia cell assay; format: cell-based; details: 48 hours
Description: P388 mouse leukemia cells are grown in Dulbecco MEM medium with 10% horse serum 4 mM, glutamine, and 20 μg/ml gentamycin (Biologos, Inc.). Cells are incubated in 10% CO2 and subcultured 2 times per week.
1. Add composition to each well of a 24-well plate or tube and allow solvent to evaporate to dryness.
2. Add 2 ml (1.2×10^5) cells to each well or tube and mix.
3. Incubate in 10% CO2 at 37° for 48 hours.
4. Read plates with an inverted microscope, scoring activity from 1+ to 4+ as follows: ND (not detectable), >90%, 1+, 75-90%; 2+, 50-74%; 3+, 25-49%; 4+, <25% of control growth. Alternatively, scoring may be expressed as IC50 which represents the minimum concentration of the composition required to inhibit 50% of the cell growth on the plate. Cell counts are performed on each tube and results are reported as percent of control.

[2] = test system: mixed lymphocytes (BALB/c+C57BL/6); experiment: Mixed lymphocyte reaction (MLR) assay; format: cell-based, murine; details: Mus musculus, percent of positive control, 3H-thymidine, immunostimulatory criterion 150% or greater, read-out: Immunomodulatory activity, % Reference; for activity at 5 µg/mL: 5 ug/ml; for activity at 50 µg/mL: 50 ug/ml
Description: The assay method was uded to identify immune response modifiers of the compositions of Formulae I-III corresponding to composition 1-3 of the samples.
Aseptically removed spleens from BALB/c and C57BL/6 mice were homogenized, separately, in RPMI 1640 medium with 10% fetal calf serum, 2% L-glutamine,15 mM HEPES, 1% antibiotic-antimycotic solution and 25 μg/ml gentamycin (GIBCO). Lymphocytes were then derived by differential cetrifugation after red blood cell lysing and serial cell washing in complete media. Cells were adjusted to equal concentrations (2.5×10^6 cells/ml) and combined after removal of negative control aliquots. Incubation conditions for the cells were 5% CO2, 95% air at 37° C.
1. Add composition to each well of a 96-well plate and allow solvent to evaporate to dryness, if not aqueous.
2. Add 0.2 ml mixed lymphocytes (BALB/c+C57BL/6) to each well and mix.
3. Incubate in 5% CO2 at 37° C. for 86 hours.
4. Pulse wells with 0.1 ml ^3 H-thymidine (1 uCi/well).
5. Incubate in 5% CO2 at 37° C. for 6 hours.
6. Harvest plates and add 2 ml scintillant to each vial containing a filter disc.
7. Count vials in a liquid scintillation counter (Beckman).
8. Average replicate counts and report data as percent of positive control. The criteria for immunostimulatory effectiveness is a value of 150%, or greater, above control values for mixed lymphocytes in culture.

[3] = test system: C. albicans; experiment: Minimum inhibitory concentration (MIC), anti-Candida assay; format: cell-based; details: approximately 1000 cells/mL, 37° C. overnight
Description: Candida albicans: C. albicans (Ca) is grown on Sabouraud dextrose agar to produce single colonies one of which is used to inoculate Sabouraud dextrose broth. The broth is incubated at 37° C. with shaking at 200 rpm for 18 hrs., the resultant culture is frozen with 10% (v/v) glycerol at -80° C. and used as the inoculum for the anti-Candida assay. Two-fold dilutions of the drug are prepared in 50 μL volumes of Sabouraud dextrose broth using 96-well microtiter plates. An inoculum of C. albicans is added in a small volume to give a cell density of approximately 1000 cells/mL. Plates are incubated at 37° C. overnight. 10 uL of Triphenyl tetrazolium chloride (1% w/v) is then added to each well; a further 2 hour incubation results in a deep coloration of the microorganism.

For `Cc1cc2c(cc3c(C)ccc1-3)C(C)CO2` (stereo not drawn) [Composition (1), dihydrolinderazulene], the IC50 [1] was 35 µg/mL (≈ 165 µM), the activity at 5 µg/mL [2] was 255% and the activity at 50 µg/mL [2] was 1%. The MIC [3] was 50 µg/mL (≈ 236 µM).

`Cc1ccc(C(C)C)cc2c(C)ccc1-2` [Composition (2), guaiazulene] gave an IC50 [1] of 35 µg/mL (≈ 176 µM), an activity at 5 µg/mL [2] of 284% and an activity at 50 µg/mL [2] of 351%. It also gave an MIC [3] of 25 µg/mL (≈ 126 µM).

`Cc1cc2occ(C)c2cc2c(C)ccc1-2` [Composition (3), linderazulene] showed an IC50 [1] of 50 µg/mL (≈ 238 µM), an activity at 5 µg/mL [2] of 155% and an activity at 50 µg/mL [2] of 19%. The MIC [3] was 12.5 µg/mL (≈ 59.4 µM).
